What was measured:
Human coronavirus OC43 = test: Antiviral activity against HCoV-OC43 infected in human NCI-H460 cells incubated for 72 hrs by CCK8 assay; type: functional, organism-based; conditions: Betacoronavirus 1, NCI-H460, 72 h
[1] = Cytotoxicity against human NCI-H460 cells incubated for 72 hrs by CCK8 assay; type: toxicity, cell-based; conditions: read-out: EC50
[2] = Selectivity index, ratio of CC50 for cytotoxicity against human NCI-H460 cells to EC50 for antiviral activity against HCoV-OC43 infected in human NCI-H460 cells; type: toxicity, cell-based, NCI-460; conditions: read-out: Ratio CC50/EC50

C=CC(=O)O[C@H]1[C@H](C)O[C@@H](O[C@H]2[C@H](N(C)C)[C@@H](O)[C@H](O[C@H]3[C@@H](CC=O)C[C@@H](C)[C@@H](O[C@H]4CC[C@H](N(C)C)[C@@H](C)O4)/C=C/C=C/C[C@@H](C)OC(=O)C[C@@H](O)[C@@H]3OC)O[C@@H]2C)C[C@@]1(C)O gave an EC50 (Human coronavirus OC43) of 12 µM, a CC50 at 72 h [1] of 38.4 µM and a selectivity ratio [2] of 3.2.
In the case of CCCCC(=O)O[C@H]1[C@H](C)O[C@@H](O[C@H]2[C@H](N(C)C)[C@@H](O)[C@H](O[C@H]3[C@@H](CC=O)C[C@@H](C)[C@@H](O[C@H]4CC[C@H](N(C)C)[C@@H](C)O4)/C=C/C=C/C[C@@H](C)OC(=O)C[C@@H](O)[C@@H]3OC)O[C@@H]2C)C[C@@]1(C)O, the EC50 (Human coronavirus OC43) is reported as 5.61 µM, the CC50 at 72 h [1] is reported as 34 µM and the selectivity ratio [2] is reported as 6.1.
CO[C@@H]1[C@@H](O[C@@H]2O[C@H](C)[C@@H](O[C@H]3C[C@@](C)(O)[C@@H](O)[C@H](C)O3)[C@H](N(C)C)[C@H]2OC(=O)/C=C/c2ccccc2)[C@@H](CC=O)C[C@@H](C)[C@@H](O[C@H]2CC[C@H](N(C)C)[C@@H](C)O2)/C=C/C=C/C[C@@H](C)OC(=O)C[C@H]1O showed an EC50 (Human coronavirus OC43) of 1.48 µM, a CC50 at 72 h [1] of 5.57 µM and a selectivity ratio [2] of 3.8.
C=CC(=O)O[C@H]1[C@H](C)O[C@@H](O[C@H]2[C@H](N(C)C)[C@@H](OC(C)=O)[C@H](O[C@H]3[C@@H](CC=O)C[C@@H](C)[C@@H](O[C@H]4CC[C@H](N(C)C)[C@@H](C)O4)/C=C/C=C/C[C@@H](C)OC(=O)C[C@@H](O)[C@@H]3OC)O[C@@H]2C)C[C@@]1(C)O gave an EC50 (Human coronavirus OC43) of 4.78 µM, a CC50 at 72 h [1] of 18.9 µM and a selectivity ratio [2] of 4.
For CC(C)C(=O)OC[C@H]1O[C@@H](n2ccc(NO)nc2=O)[C@H](O)[C@@H]1O [MOLNUPIRAVIR], the EC50 (Human coronavirus OC43) was 0.16 µM and the selectivity ratio [2] was 196.
CO[C@@H]1[C@@H](O[C@@H]2O[C@H](C)[C@@H](O[C@H]3C[C@@](C)(O)[C@@H](O)[C@H](C)O3)[C@H](N(C)C)[C@H]2OC(=O)C2CCC2)[C@@H](CC=O)C[C@@H](C)[C@@H](O[C@H]2CC[C@H](N(C)C)[C@@H](C)O2)/C=C/C=C/C[C@@H](C)OC(=O)C[C@H]1O showed an EC50 (Human coronavirus OC43) greater than 6.25 µM, a CC50 at 72 h [1] of 13.7 µM and a selectivity ratio [2] of less than 2.2.
Molecule COc1ccc(CC(=O)O[C@H]2[C@H](C)O[C@@H](O[C@H]3[C@H](N(C)C)[C@@H](O)[C@H](O[C@H]4[C@@H](CC=O)C[C@@H](C)[C@@H](O[C@H]5CC[C@H](N(C)C)[C@@H](C)O5)/C=C/C=C/C[C@@H](C)OC(=O)C[C@@H](O)[C@@H]4OC)O[C@@H]3C)C[C@@]2(C)O)cc1 has an EC50 (Human coronavirus OC43) greater than 12.5 µM, a CC50 at 72 h [1] of 27 µM and a selectivity ratio [2] of less than 2.2.
For CO[C@@H]1[C@@H](O[C@@H]2O[C@H](C)[C@@H](O[C@H]3C[C@@](C)(O)[C@@H](O)[C@H](C)O3)[C@H](N(C)C)[C@H]2OC(=O)CCCc2ccccc2)[C@@H](CC=O)C[C@@H](C)[C@@H](O[C@H]2CC[C@H](N(C)C)[C@@H](C)O2)/C=C/C=C/C[C@@H](C)OC(=O)C[C@H]1O, the EC50 (Human coronavirus OC43) was 11.9 µM, the CC50 at 72 h [1] was 39.3 µM and the selectivity ratio [2] was 3.3.
Work on COc1ccc(CCC(=O)O[C@H]2[C@H](O[C@H]3[C@@H](CC=O)C[C@@H](C)[C@@H](O[C@H]4CC[C@H](N(C)C)[C@@H](C)O4)/C=C/C=C/C[C@@H](C)OC(=O)C[C@@H](O)[C@@H]3OC)O[C@H](C)[C@@H](O[C@H]3C[C@@](C)(O)[C@@H](O)[C@H](C)O3)[C@@H]2N(C)C)cc1 yielded an EC50 (Human coronavirus OC43) of 4.52 µM, a CC50 at 72 h [1] of 13.8 µM and a selectivity ratio [2] of 3.
For CO[C@@H]1[C@@H](O[C@@H]2O[C@H](C)[C@@H](O[C@H]3C[C@@](C)(O)[C@@H](O)[C@H](C)O3)[C@H](N(C)C)[C@H]2OC(=O)C(C)(C)C)[C@@H](CC=O)C[C@@H](C)[C@@H](O[C@H]2CC[C@H](N(C)C)[C@@H](C)O2)/C=C/C=C/C[C@@H](C)OC(=O)C[C@H]1O, the EC50 (Human coronavirus OC43) was 4.5 µM, the CC50 at 72 h [1] was 16.2 µM and the selectivity ratio [2] was 3.6.
CO[C@@H]1[C@@H](O[C@@H]2O[C@H](C)[C@@H](O[C@H]3C[C@@](C)(O)[C@@H](O)[C@H](C)O3)[C@H](N(C)C)[C@H]2OC(=O)CC(C)(C)C)[C@@H](CC=O)C[C@@H](C)[C@@H](O[C@H]2CC[C@H](N(C)C)[C@@H](C)O2)/C=C/C=C/C[C@@H](C)OC(=O)C[C@H]1O showed an EC50 (Human coronavirus OC43) of 4.89 µM, a CC50 at 72 h [1] of 13.4 µM and a selectivity ratio [2] of 2.7.
In the case of CO[C@@H]1[C@@H](O[C@@H]2O[C@H](C)[C@@H](O[C@H]3C[C@@](C)(O)[C@@H](O)[C@H](C)O3)[C@H](N(C)C)[C@H]2OC(=O)CCc2ccccc2)[C@@H](CC=O)C[C@@H](C)[C@@H](O[C@H]2CC[C@H](N(C)C)[C@@H](C)O2)/C=C/C=C/C[C@@H](C)OC(=O)C[C@H]1O, the EC50 (Human coronavirus OC43) is reported as 3.89 µM, the CC50 at 72 h [1] is reported as 18.9 µM and the selectivity ratio [2] is reported as 4.8.
CO[C@@H]1[C@@H](O[C@@H]2O[C@H](C)[C@@H](O[C@H]3C[C@@](C)(O)[C@@H](O)[C@H](C)O3)[C@H](N(C)C)[C@H]2OC(=O)C2CCCCC2)[C@@H](CC=O)C[C@@H](C)[C@@H](O[C@H]2CC[C@H](N(C)C)[C@@H](C)O2)/C=C/C=C/C[C@@H](C)OC(=O)C[C@H]1O showed an EC50 (Human coronavirus OC43) greater than 12.5 µM, a CC50 at 72 h [1] of 15 µM and a selectivity ratio [2] of less than 1.2.
Work on CO[C@@H]1[C@@H](O[C@@H]2O[C@H](C)[C@@H](O[C@H]3C[C@@](C)(O)[C@@H](OC(=O)Cc4ccc(Cl)cc4)[C@H](C)O3)[C@H](N(C)C)[C@H]2OC(C)=O)[C@@H](CC=O)C[C@@H](C)[C@@H](O[C@H]2CC[C@H](N(C)C)[C@@H](C)O2)/C=C/C=C/C[C@@H](C)OC(=O)C[C@H]1O yielded an EC50 (Human coronavirus OC43) greater than 6.25 µM, a CC50 at 72 h [1] of 7.4 µM and a selectivity ratio [2] of less than 1.2.
Molecule CCCC(=O)O[C@H]1[C@H](C)O[C@@H](O[C@H]2[C@H](N(C)C)[C@@H](O)[C@H](O[C@H]3[C@@H](CC=O)C[C@@H](C)[C@@H](O[C@H]4CC[C@H](N(C)C)[C@@H](C)O4)/C=C/C=C/C[C@@H](C)OC(=O)C[C@@H](O)[C@@H]3OC)O[C@@H]2C)C[C@@]1(C)O has an EC50 (Human coronavirus OC43) of 5.17 µM, a CC50 at 72 h [1] of 33.1 µM and a selectivity ratio [2] of 6.4.
CO[C@@H]1[C@@H](O[C@@H]2O[C@H](C)[C@@H](O[C@H]3C[C@@](C)(O)[C@@H](O)[C@H](C)O3)[C@H](N(C)C)[C@H]2OC(=O)C2CCCC2)[C@@H](CC=O)C[C@@H](C)[C@@H](O[C@H]2CC[C@H](N(C)C)[C@@H](C)O2)/C=C/C=C/C[C@@H](C)OC(=O)C[C@H]1O showed an EC50 (Human coronavirus OC43) greater than 12.5 µM, a CC50 at 72 h [1] of 20 µM and a selectivity ratio [2] of less than 1.6.
In the case of CCCCCC(=O)O[C@H]1[C@H](O[C@H]2[C@@H](CC=O)C[C@@H](C)[C@@H](O[C@H]3CC[C@H](N(C)C)[C@@H](C)O3)/C=C/C=C/C[C@@H](C)OC(=O)C[C@@H](O)[C@@H]2OC)O[C@H](C)[C@@H](O[C@H]2C[C@@](C)(O)[C@@H](O)[C@H](C)O2)[C@@H]1N(C)C, the EC50 (Human coronavirus OC43) is reported as 5.05 µM, the CC50 at 72 h [1] is reported as 18.2 µM and the selectivity ratio [2] is reported as 3.6.
In the case of CCC(=O)O[C@H]1[C@H](O[C@H]2[C@@H](CC=O)C[C@@H](C)[C@@H](O[C@H]3CC[C@H](N(C)C)[C@@H](C)O3)/C=C/C=C/C[C@@H](C)OC(=O)C[C@@H](O)[C@@H]2OC)O[C@H](C)[C@@H](O[C@H]2C[C@@](C)(O)[C@@H](O)[C@H](C)O2)[C@@H]1N(C)C, the EC50 (Human coronavirus OC43) is reported as 23.4 µM, the CC50 at 72 h [1] is reported as greater than 161 µM and the selectivity ratio [2] is reported as greater than 6.9.

From ChEMBL document CHEMBL6103594, “Synthesis and evolution of 16-membered macrolide carrimycin derivatives as a novel class of anti-HCoV-OC43 agents targeting viral FSE RNA” (Eur J Med Chem, 2025)
